{"source": "patent US20260048205A1", "about": "“SYSTEMS AND METHODS FOR MIXING SYRINGE VALVE ASSEMBLIES AND SYRINGE FORMULATIONS” (Tolmar International Limited, priority 2024, published 2026)", "key": {"[1]": {"format": "physicochemical", "text": "To produce the drug/solvent bulk solution comprising the API (LA), the desired amount of the LA was combined with the solvent N-methyl-2-pyrrolidone (NMP), in the indicated amounts (see individual experiments below). The API and solvent were combined in a glass vial or jar. Jars were mixed using the jar mill, Turbula, or shaker at room temperature until homogeneous. LA is soluble in NMP and can load higher concentrations (at least 40% w/w). After dissolving the API in the organic solvent, the bulk solution was manually filled into syringes and capped with a tip cap. The syringes used for filling were either 1.2 mL male polypropylene syringes, 1.2 mL male cyclic olefin copolymer syringes or 1 mL male cyclic olefin copolymer syringes. In some instances, the two syringes were coupled via the connector prior to packaging. Filled syringes were then packaged in labeled foil pouches or a plastic tray pack with foil lid with a Syringe A (polymer-solvent solution) and a desiccant pack and the pouches were sealed. After filling the syringes with the formulations, they were terminally sterilized with an external radiation dose of more than 15 kGy and less than 60 kGy from irradiation processing (E-beam, Gamma or X-ray). After terminal sterilization, the syringes were stored under refrigerated conditions (e.g., 2-8° C.) or accelerated conditions (>25° C. see individual experiments)."}, "LA gelation studies": {"assay": "LA gelation studies", "format": "physicochemical", "conditions": "drug solution in NMP; e-beam irradiated; 60° C., 150 rpm, up to 16 days", "protocol": "Drug solutions were prepared as described above and filled into syringes or glass vials. Syringes were untreated, contained various amounts of silicone, or were plasma coated for lubrication. Samples were irradiated by e-beam irradiation at not less than 25 kGy and stored at accelerated conditions of 60° C. with agitation at 150 rpm for up to 16 days. Samples were inspected periodically to determine if the drug solution remained a solution or had formed a solid/gel by an inversion test. Samples that had “gelled” were transferred to 5° C. for subsequent testing. The gelation rate for each sample was calculated as Rate=1/(simulated 5° C. age at time of gelation in days). The Arrhenius equation was used to determine the simulated age, assuming standard reaction rate doubling for every 10° C. increase in temperature. […] Data was analyzed using JMP. […] Container type and lubrication were not significant. Samples were tested for leuprolide content by HPLC. Leuprolide content was then converted to leuprolide acetate by multiplying by 1.078 (based on molecular mass ratios). A marked difference in leuprolide acetate content between the gelled and non-gelled samples was seen, with the tipping point between solution and solid/gelled samples occurring at about 45% LA."}}, "data": [{"smiles": "CCNC(=O)[C@@H]1CCCN1C(=O)[C@H](CCCNC(=N)N)NC(=O)[C@H](CC(C)C)NC(=O)[C@@H](CC(C)C)NC(=O)[C@H](Cc1ccc(O)cc1)NC(=O)[C@H](CO)NC(=O)[C@H](Cc1c[nH]c2ccccc12)NC(=O)[C@H](Cc1c[nH]cn1)NC(=O)[C@@H]1CCC(=O)N1", "note": "[LA, leuprolide acetate]", "values": [{"measurement": "solubility / loading in NMP", "setting": "[1]", "value": "at least 40 % w/w"}, {"measurement": "tipping point between solution and solid/gelled samples", "setting": "LA gelation studies", "value": "about 45 % LA"}]}]}
